Values quoted from earlier work in US12275835B1, “High clarity antimicrobial resins” (Phoenix Plastics L.P., priority 2020, dated 2025).

Columns and labels:
Gram-negative bacteria = details: within 30 seconds
Gram-positive bacteria = details: within 30 seconds

In the case of `N=C(NCCCCCCNC(=N)NC(=N)Nc1ccc(Cl)cc1)NC(=N)Nc1ccc(Cl)cc1` [chlorhexidine], the “kill of Gram-negative bacteria” value (Gram-negative bacteria) is given as roughly 100% and the “kill of Gram-positive bacteria” value (Gram-positive bacteria) is given as roughly 100%.
